Entries after “also recorded” stand apart in the source; their conditions may differ.
Assays:
[1] = target: calf thymus ADPRT (Bos taurus, UniProt P18493); assay: ADPRT polymerase activity inhibition/inactivation (I50)
Experimental: The compounds of the subject invention were tested for their ability to inactivate the polymerase activity of adenosinediphosphoribosyl transferase (ADPRT). Assays were performed according to the method of Buki and Kun, Biochem. 27:5990-5995 (1988), using calf thymus ADPRT.
Assay conditions: ADPRT, 0.4 μg; coDNA, 4 μg; inhibitor diluted
between 0.8 and 600 μM, in 50 μl of 50 mM TrisHCl, 50 mM KCl, 5 mM
2mercaptoethanol, 0.5 mM EDTA, 0.1 mM NAD ([32Plabelled), pH 7.5.
Polymerization at 25° C. for 4 minutes.

[2] = tested on: HL-60 cells; assay: Colony formation (CFU) in semi-solid medium, HL-60; format: cell-based, human; details: single cells in semi-solid medium
[3] = tested on: HIV-1 (LAV strain); assay: HIV-1 inactivation assay in PHA-stimulated PBL (FIG. 13A, B); format: cell-based
Experimental: The assay was performed as described in FIG. 13A except that the 30 min. preincubation of virus with NOBA was carried out at 0, 22 or 37° C.
An HIV-1 stock having an infectivity titer of 100,000 TCID50 was incubated for 30 min. at 22° C. with either of the drugs. Control HIV samples, containing no drugs, were incubated in the same manner. […] At the end of this incubation cultures were assayed for productive infection by an immunoassay for HIV-1 antigens and by reverse transcriptase as described in McDougal, et al., J. Immunol Methods 76:171-183 (1985). Virus titers were expressed as percentile values (percent infected cultures) compared to the controls, containing HIV dilutions which were not preincubated with the C-nitroso drugs. In a separate series of experiments, HIV-1 dilutions and C-nitroso drugs (see upper abscissa) were not preincubated but were added simultaneously to lymphocytes in exactly the same concentrations as described previously (i.e., following preincubation) and viral growth monitored 9 days later. […] Chem. Soc. 111:395-396 (1989), South, et al., Biochem Pharm. 40:123-129 (1990), Summers, et al., Biochemistry 29:329-340 (1990), the inhibition of HIV-1 propagation was profound when C-nitroso drugs were preincubated with HIV-1, whereas only negligible effect on HIV-1 growth occurred when both drugs and virus were added simultaneously.
Experiments were performed in which the incubations with NOBA was carried out at 0°, 22°, and 37° C. […] In agreement with the negligible cytotoxic effect of C-nitroso drugs on non-tumor cells described elsewhere in this application, human lymphocytes tolerated NOBA up to 50 μM without major changes in cell metabolism, which was assayed by quantitative dye reduction as described in Mosaran, J. Imm. Methods 65:55-63 (1983).

[4] = tested on: 855-2 cells; assay: [3H]thymidine uptake / growth, 855-2 cells; format: cell-based, human
[5] = tested on: HIV-1 (MN strain) virions; assay: Zinc loss from HIV-1 virions treated with NOBA; format: biochemical
Experimental: Experiments were performed to determine if NOBA is capable of ejecting zinc from intact virions. HIV-1 (MN strain) was produced, purified and concentrated as described in Bess et al., J. Virol. 66:840-847 (1992). The concentrated virus was diluted to 60 times that of culture fluid in TNE buffer (0.01M Tris-HCl, 0.1M NaCl, 1 mM EDTA, pH 7.2) and incubated with 3000 or 6000 μM NOBA at 37° C. The virus was then pelleted and washed with TNE buffer to remove weakly bound zinc. The quantity of zinc in the resulting viral pellets was determined as described in Bess et. al., J. Virol. 66:840-847 (1992).

[6] = tested on: HIV-1; assay: Anti-HIV action on stimulated human lymphoblasts, virus titer; format: cell-based; details: 10 μM; 30 min exposure; virus alone 5.25
Experimental: VIII. Anti-HIV action of NOBP, NOBA and NOQ on stimulated human lymphoblasts
Exposure to the two drugs was only for 30 minutes at the commencement of viral infection, and drugs were never re-added. The results given in Table III provide the ID50 of HIV titer 10 days after infection of cell cultures with HIV.

[7] = target: Zn(HIV1-F1)-oligonucleotide complex (Human immunodeficiency virus type 1 lw12.3 isolate, UniProt Q70622); assay: NMR studies of Zn(HIV1-F1) nucleic acid binding; format: biochemical, HIV-1; details: two equivalents of NOBA (FIG. 11)
From the text: The downfield regions of the spectra show the signals of the aromatic and ribose H1' protons, and the upfield region contain signals of the methyl group protons. Dramatic spectral changes occur upon addition of oligonucleotide to Zn(HIV1-F1), including large upfield shifts of the Phe 2 and Ile 10 side chain=n signals and a downfield shifting and broadening of the guanosine-H8 proton signal (second from the top).
The reaction mechanism, schematically illustrated in FIG. 12, is consistent with the result of NMR analysis in FIGS. 10 and 11. The reaction mechanism proposed in FIG. 12 is a useful model but is not intended to limit the scope of the claimed invention.

[8] = tested on: cancer cells (855-2 and HL-60 leukemia, D32, D37 and CRL 7712 glioblastoma, 186 medulla tumor, L1210 murine leukemia, MDA-468 human breast tumor); assay: Functions of cancer cells in absence or presence of compounds (FIGS. 4-9); format: cell-based
Experimental: Experiments were performed in which the functions of various cancer cells (855-2 and HL-60 leukemia cells, D32, D37 and CRL 7712 glioblastoma cell lines, 186 medulla tumor cell line, L1210 murine leukemia cell line, MDA-468 human breast tumor cell line) and normal cells (neutrophil leukocytes and bone marrow or peripheral blood stream cells) were assessed in the absence or presence of the compounds.

Chain of calf thymus ADPRT (P18493 whole entry): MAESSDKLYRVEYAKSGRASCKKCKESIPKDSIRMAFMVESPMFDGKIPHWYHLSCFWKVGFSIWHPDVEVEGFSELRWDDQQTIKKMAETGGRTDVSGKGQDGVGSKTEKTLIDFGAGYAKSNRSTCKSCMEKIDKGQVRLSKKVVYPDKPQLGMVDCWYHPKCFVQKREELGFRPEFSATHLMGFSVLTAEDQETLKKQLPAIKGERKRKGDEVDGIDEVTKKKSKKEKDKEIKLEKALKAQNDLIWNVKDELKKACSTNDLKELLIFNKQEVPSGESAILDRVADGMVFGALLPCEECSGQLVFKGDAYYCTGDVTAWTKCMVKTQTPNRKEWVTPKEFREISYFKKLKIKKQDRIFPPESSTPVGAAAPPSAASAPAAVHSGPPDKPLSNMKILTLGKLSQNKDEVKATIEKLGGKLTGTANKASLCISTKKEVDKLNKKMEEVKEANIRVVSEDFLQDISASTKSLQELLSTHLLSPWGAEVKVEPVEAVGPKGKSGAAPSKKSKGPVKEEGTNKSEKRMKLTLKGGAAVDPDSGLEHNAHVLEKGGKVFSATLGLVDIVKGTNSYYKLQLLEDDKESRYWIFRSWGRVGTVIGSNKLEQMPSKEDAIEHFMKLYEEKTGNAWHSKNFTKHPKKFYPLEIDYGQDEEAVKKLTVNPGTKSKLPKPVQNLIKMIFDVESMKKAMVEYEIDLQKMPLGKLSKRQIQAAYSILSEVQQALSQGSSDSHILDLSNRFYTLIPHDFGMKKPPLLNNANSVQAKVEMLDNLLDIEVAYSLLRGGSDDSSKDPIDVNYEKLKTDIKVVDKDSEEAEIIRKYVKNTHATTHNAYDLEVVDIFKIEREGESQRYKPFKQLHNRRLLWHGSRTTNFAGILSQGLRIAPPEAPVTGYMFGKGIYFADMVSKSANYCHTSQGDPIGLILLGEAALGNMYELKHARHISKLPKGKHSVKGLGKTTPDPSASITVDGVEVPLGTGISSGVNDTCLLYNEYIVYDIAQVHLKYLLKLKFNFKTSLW

**Q.** What does the source list for NC(=O)c1cccc(N=O)c1 [NOBA, 3-nitrosobenzamide]?
**A.** IC50 [1]: 15 µM; colony formation, HL-60, in words [2]: inhibit the ability of human leukemic cells (855-2 and HL-60) to form colonies; log reduction at 100 µM ([3]; Human immunodeficiency virus 1, 0.5 h, 100 μM, 30 min, 22° C., 9 days, read-out: decrease of infectious virus available to cause 50% infected cultures): 4; relative depression of HIV-1 propagation, in words ([3]; NOBA vs NOBP): greater depression of HIV-1 propagation; temperature of maximal inactivation of HIV-1 ([3]; preincubation at 0°, 22° and 37° C.): 37 °C; growth arrest of 855-2 cells at increasing serum concentration ([4]; 10 μM, increasing FCS): Growth arrest occurs irrespective of the concentration of FCS; relative potency, 855-2 ([4]; 10% fetal bovine serum): potent inhibitory effects regardless of the source of growth factor activity; Zinc Loss ([5]; 3,000 μM, 2 h, 37° C.): 52%; Zinc, NOBA-Treated Sample ([5]; 3,000 μM, 2 h, 37° C., control 0.21): 0.11 µg/mL; Zinc Loss ([5]; 6,000 μM, 4 h, 37° C.): 83%; Zinc, NOBA-Treated Sample ([5]; 6,000 μM, 4 h, 37° C., control 0.24): 0.04 µg/mL; losses of the viral zinc ([5]; 3000 or 6000 μM, 37° C.): 50-83%; infectivity of HIV-1 virions, in words ([5]; concentrated suspensions (60×)): complete loss of infectivity; loss of viral proteins in the pellet, in words ([5]; p24 and gp120 competition RIA, SDS-PAGE): No significant loss of viral proteins; Virus Titer (log ID50), 10 days [6]: 1.05 log ID50; zinc ejection and loss of nucleic acid binding, in words [7]: ejection of zinc with concomitant dissociation of the zinc finger nucleic acid complex; also recorded: NOBA-induced zinc ejection leads to loss of high-affinity nucleic acid binding function; activity against tumor cells, in words [8]: highly effective (against tumor cells)
